Measured values reported in patent publication US20240238448A1, “USE OF CHEMICAL EPIGENETIC MODIFIERS TO MODULATE GENE […] VECTORS” (The University of North Carolina at Chapel Hill, priority 2021, published 2024).
Read-outs that look alike come from different tables or passages of the source.

Assays:
[1] = Pharmacokinetics of CEM87 in mice; details: mouse, in vivo
Procedure: Pharmacokinetic Data of CEM87 in Mice: Initial and encouraging pharmacokinetics (PK) analysis of CEM87 were conducted. Mice were administered a single 3 mg/kg dose of CEM87 via intravenous (IV) injection or a single dose of 30 mg/kg of CEM87 through the intraperitoneal (IP) route (n=9 per group, 3 mice per time point).

[2] = test system: transgene (firefly luciferase) expression in HEK293T.17 cells; experiment: ZF-CEM technology AAV transgene expression, Promega Dual Luciferase Assay in HEK293T.17 cells; type: cell-based, human
Procedure: At a higher viral genomes per cell dose of virus, higher fold change in transgene (firefly luciferase) expression was seen. HEK293T.17 cells that stably express Renilla Luciferase (for normalization purposes) were plated at 7.5K cells per well in a 96 well plate. The next day, the cells were infected with ZF-CEM technology virus at either 2K or 20K vg/cell. After 24 hours, the cells were treated with varying concentrations of CEM87. After an additional 48 hours (72 hours post initial AAV infection), a Promega Dual Luciferase Assay was run to determine the levels of luciferase.
At 20K viral genomes per cell, ZF-CEM technology was able to increase the levels of transgene (firefly luciferase) expression in a statistically significant manner as early as 24 hours and continue to have effects up to 96 hours post CEM87 addition (FIG. 16). The highest fold change in luciferase expression was seen 24 hours after CEM87 dosage (48 hours after AAV infection). HEK293T.17 cells that stably express Renilla Luciferase (for normalization purposes) were plated at 7.5K cells per well in a 96 well plate. The next day, the cells were infected with ZF-CEM technology virus at 20K vg/cell. After 24 hours, the cells were treated with 200 nM CEM87. A Promega Dual Luciferase Assay was run every 24 hours post CEM87 dosage to determine the levels of luciferase over time.
At 20K viral genomes per cell, the impact of ZF-CEM technology on transgene expression was reversible through washout or washout with the addition of FK506, a chemical capable of competing off CEM87 from the transgene it is recruited to (FIG. 17). Reversibility was achieved within 24 hours of removal of CEM87 through washout or washout and treatment with 100× more FK506 ([…]). HEK293T.17 cells that stably express Renilla Luciferase (for normalization purposes) were plated at 7.5K cells per well in a 96 well plate. The next day, the cells were infected with ZF-CEM technology virus at 20K vg/cell. After 24 hours, the cells were treated with 200 nM CEM87. After 48 hours, wells were either washed out with fresh media or washed out with fresh media that contained […]. A Promega Dual Luciferase Assay was run every 24 hours post washout/FK506 dosage to determine the levels of luciferase over time.
HEK293T.17 cells that stably express Renilla Luciferase (for normalization purposes) were plated at 7.5K cells per well in a 96 well plate. The next day, the cells were infected with ZF-CEM technology virus at 20K vg/cell. After 24 hours, the cells were treated with 200 nM CEM114. After 48 hours, a Promega Dual Luciferase Assay was run to determine the levels of luciferase.

[3] = test system: AAV2-BD-JET-GFP genomes in 293-ZF-FKBP cells; experiment: CEM activation of AAV2-BD-JET-GFP vectors in 293-ZF-FKBP cells, GFP fluorescence by flow cytometry; type: cell-based, human; details: AAV vectors without the engrafted ZF BD, or AAV2-BD-JET-GFP in WT 293 cells
Procedure: It was then examined whether CEM87 can control recombinant AAV transgene expression in transduced cells. HEK293T.17 cells that stably expresses ZF-FKBP were transduced with an AAV2 vector that contains a zinc finger DNA binding domain recognition sequence specific to the array in ZF-FKBP upstream of a JET promoter and an eGPF reporter gene downstream of the promoter. After 24 h the cell media was replaced with media containing either 200 nM CEM87 or a DMSO control. 48 hours post CEM87 addition, cells were imaged and flow cytometry run to determine the percent eGFP expression.
Some of these experiments relied on a 293 cell line harboring a stable constitutive ZF-FKBP cassette (293-ZF-FKBP) and transduction by AAV2-JET-GFP vectors harboring the ZF binding domain recognition sequence (BD) upstream of the constitutive JET promoter (FIG. 5). Two chemicals were investigated in these initial studies, CEM87 and CEM114 which bind ZF-FKBP and act to recruit BRD4 or CBP/p300, respectively. […] Following the transduction of AAV2-BD-Jet-GFP vectors to 293-ZF-FKBP cells, increasing concentrations of CEMs (87 or 114) were added to the culture medium. Two days later, GFP fluorescence was analyzed by flow cytometry.

Compound | AUC(0-t) ([1]; single 3 mg/kg IV, read-out: exposure (AUC0-24)) [ng·h/mL] | half-life ([1]; single 3 mg/kg IV, read-out: half-life (t1/2) (converted)) [h] | Cmax ([1]; single 3 mg/kg IV, read-out: maximal concentration (Cmax)) [ng/mL] | bioavailability ([1]; single 30 mg/kg IP) [%] | AUC(0-t) ([1]; single 30 mg/kg IP, read-out: AUC0-24) [ng·h/mL] | Cmax ([1]; single 30 mg/kg IP, read-out: Cmax) [ng/mL] | half-life ([1]; single 30 mg/kg IP, read-out: t1/2 (converted)) [h] | chemical control of transgene (firefly luciferase) expression (in words) ([2]; 2K or 20K vg/cell, varying concentrations, 48 hours after CEM87 (72 hours post AAV infection)) | earliest time of statistically significant increase of transgene (firefly luciferase) expression post CEM87 addition ([2]; 20K vg/cell, 200 nM CEM87) [h] | time up to which effects on luciferase expression continue post CEM87 addition ([2]; 20K vg/cell, 200 nM CEM87) | time of highest fold change in luciferase expression after CEM87 dosage ([2]; 20K vg/cell, 200 nM CEM87, 48 hours after AAV infection) [h] | time to reversibility of transgene expression after removal of CEM87 ([2]; 20K vg/cell, 200 nM CEM87 for 48 hours, then washout or washout with 100× more FK506) [h] | drug response in control experiments [3] | effect on AAV transgene expression (in words) ([2]; 20K vg/cell, 200 nM CEM114, 48 hours)
COc1ccc2c(c1)C(c1ccc(Cl)cc1)=N[C@@H](CC(=O)NCc1cn(CCOCCOCCOCCNC(=O)CCSCCC[C@@H]3/C=C(\C)C[C@H](C)C[C@H](OC)[C@H]4O[C@@](O)(C(=O)C(=O)N5CCCC[C@H]5C(=O)O[C@H](/C(C)=C/[C@@H]5CC[C@@H](O)[C@H](OC)C5)[C@H](C)[C@@H](O)CC3=O)[C@H](C)C[C@@H]4OC)nn1)c1nnc(C)n1-2 [CEM87] | 27500 | ~4 | 34100 | ~50 | 114000 | 15500 | 4 | dose dependent chemical control | 24 | up to 96 hours | 24 | ≤ 24 | no drug response | –
CO[C@H]1C[C@@H](C)C/C(C)=C/[C@@H](CCCSCCC(=O)NCCOCCOCCOCCn2cc(COc3ccc(CCc4nc5cc(-c6c(C)noc6C)ccc5n4CCN4CCOCC4)cc3F)nn2)C(=O)C[C@H](O)[C@@H](C)[C@@H](/C(C)=C/[C@@H]2CC[C@@H](O)[C@H](OC)C2)OC(=O)[C@@H]2CCCCN2C(=O)C(=O)[C@]2(O)O[C@H]1[C@@H](OC)C[C@H]2C [CEM114] | – | – | – | – | – | – | – | – | – | – | – | – | – | increase AAV transgene expression
